Data set [1] concerns papillomas induced with dimethyl-benzanthracene and croton oil. The data set is described as follows: papilloma test: regression of tumors induced with dimethyl-benzanthracene and croton oil. The format is in vivo. The settings on record: mice, intraperitoneal, 400mg/kg/week, within two weeks. The procedure: The polyene compounds of formula I are useful in the topical and systemic prophylaxis and treatment of benignant and malignant neoplasias and premalignant lesions. The tumor-inhibiting activity of the polyene compounds of the invention is significant. […] The diameter of such papillomas in mice decreased by 55% within two weeks upon intraperitoneal administration of 400mg/kg/week of 9-(2,2,5,7,8-pentamethyl-chroman-6-yl)-3,7-dimethyl-nona-2,4,6,8-tetraen-1-oic acid.

The nature of data set [2]: acute toxicity after intraperitoneal administration in rape oil. The settings on record: mouse, in vivo, ip.

These results are taken from patent US3984440A, “Polyene compounds” (Hoffmann-La Roche Inc., priority 1973, dated 1976).

On to `CC(/C=C/c1c(C)c(C)c2c(c1C)CCC(C)(C)O2)=C\C=C\C(C)=C\C(=O)O` [9-(2,2,5,7,8-pentamethyl-chroman-6-yl)-3,7-dimethyl-nona-2,4,6,8-tetraen-1-oic acid], for which, in data set [1], the “decrease of diameter of papillomas” value is recorded as 55%. In data set [2], the LD50 (usually the dose expected to kill half of the subjects tested) worked out at 950 mg/kg, the median lethal dose (LD50) at 24 h is over 4000 mg/kg, the LD50 at 240 h was determined as 950 mg/kg and the LD50 at 480 h was found to be 950 mg/kg.
